The results in this text go back to article PMC5923171, “Novel Zinc-Attenuating Compounds as Potent Broad-Spectrum Antifungal Agents with In Vitro and In Vivo Efficacy” (Antimicrobial Agents and Chemotherapy, 2018).

One data set deals with C. albicans SC5314. Put plainly: Antifungal susceptibility testing (MIC). The class given is cell-based, Candida albicans. The following applies: at least 50% growth inhibition, RPMI, 24 h, 34°C. The protocol: (§1) Antifungal susceptibility testing was carried out as described previously ([38], [39]), with a few modifications. Briefly, for each yeast or mold growth inhibition assay, frozen stocks of yeast cells or spores were diluted to a final concentration of 0.5 × 10^5 to 2.5 × 10^5 CFU/ml in sterile water. ZAC989, ZAC307, and ZAC623 were dissolved in DMSO to 10 mM stocks from which half-log serial dilutions were prepared. Growth assays were subsequently performed by pipetting 3 μl of compound dissolved in DMSO (giving a final concentration of 1.5% DMSO), 100 μl of cell-spore suspension, and 97 μl of 2× RPMI medium (20.8 g/liter of RPMI 1640 medium, 69.06 g/liter of morpholinepropanesulfonic acid [MOPS], 36 g/liter of glucose) into a microtiter plate that was incubated for 24 h (yeasts) or 48 to 72 h (molds) at 34°C. Fungal growth was determined spectrophotometrically by optical density reading of each well at a wavelength of 492 nm on a Victor X5 (Perkin-Elmer) plate reader. […] Standard errors between repeated experiments were generally below 5%. The growth effect of exogenous addition of various divalent metals was evaluated by performing the antifungal susceptibility assay in the presence of 5 μM ZAC989 or ZAC307 and with increasing concentrations (0.003 to 50 μM) of ZnSO4, CuSO4, (NH4)2Fe(SO4)2, MgCl2, and CaCl2.

A further data set deals with HepG2 cells. Put plainly: Human hepatocyte (HepG2) proliferation assay. Particulars: for EC50: 24 h exposure, XTT. The class given is cell-based. As to the method: In each well of a 96-well tissue culture plate (GR-655180; Grenier), 10,000 human hepatocytes (HepG2) (85011430; […] Sigma]) supplemented with 2 mM L-[…]-020-1B; Biological Industries), 1% nonessential amino acids (XC-[…]/100; Biosera), and 10% fetal bovine serum (BI-04-007-1A; Biological Industries), and plates were incubated overnight at 37°C and 5% CO2. […] The plate was incubated for a further 24 h or 72 h at 37°C and 5% CO2. The medium was then replaced with 100 μl of freshly prepared 2,3-bis-(2-methoxy-4-nitro-5-sulfophenyl)-2H-tetrazolium-5-carboxanilide salt (XTT) sodium salt solution (0.5 mg/ml of XTT; […]; Sigma) in RPMI 1640 ([…]; Sigma-Aldrich) with 3.83 μg/ml of phenazine methosulfate ([…]; Sigma-Aldrich) and incubated 2 to 3 h at 37°C and 5% CO2 ([43]). The color reaction was measured on Victor X5 plate reader (Perkin-Elmer) at OD450, and the half-maximal effective concentration (EC50) was calculated. Tamoxifen (85256; Sigma) was used as a positive-control compound.

A short description of data set [1]: Potentiometric titration, ligand-copper complex formation. The class given is binding. Particulars: for copper binding (in words): potentiometric titration with CuSO4. The protocol: (§2) The Zn^2+-binding properties of ZAC307 and ZAC989 were further evaluated using a potentiometric assay, where pH is measured as a function of base (NaOH) added to the compound in either the absence or presence of metal. […] To determine the deprotonation constant, a solution of 1 mM ZAC307 or ZAC989 was titrated with 0.3 M NaOH at constant ionic strength (Fig. 2A and B). In a second run, the same titration was performed in the presence of 0.5 eq of Zn^2+ for ZAC307 and ZAC989. A shift in the pH curve in the presence of the metal (ZAC307, 0.5 eq of Zn^2+ [Fig. 2A]) compared to the absence of the metal (ZAC307 [Fig. 2A]) indicates binding of Zn^2+ to the compound. The measured pH data were analyzed with the Hyperquad program suite, taking into account all relevant equilibrium constants, including also the constants for metal hydroxylation. The analysis provides the pKa values and metal complex stability constants, as well as ligand-metal complex speciation calculation, indicating how many ZAC molecules are involved in coordinating the Zn^2+ ion at different pH values. […] ZAC989 bound copper with the formation constants log β1, log β2, and log β3 of 7.83, 13.37, and 20.62, respectively. The most dominant ZAC989-copper stoichiometry was a 3:1 stoichiometry (Fig. 2E).
Potentiometric measurements were carried out in DMSO-water (70:30, vol/vol) at 25°C as described previously ([22]). Titrations were performed with a pH meter (Denver Instruments) utilizing a glass electrode with AgCl reference filled with 3.0 M KCl. The electrode was equilibrated in DMSO-water (70:30, vol/vol) for at least 1 h before use. All experiments were performed at a constant ionic strength (0.1 M NaClO4). Three milliliters of a solution containing 1 mM compound was titrated with 0.3 M NaOH by manual additions in 1- to 5-μl increments with magnetic stirring. The metal-ligand binding constants were obtained from titrations of the metal complex solutions prepared in a 1:2 metal-to-ligand ratio. The titration data were refined by the nonlinear least-squares refinement program Hyperquad2013 ([37]) to determine the deprotonation and stability constants.

Data set [2] in a line: Potentiometric titration with CaCl2. In kind it is binding. The following applies: DMSO-water (70:30, vol/vol). The protocol:
as §2
Potentiometric measurements were carried out in DMSO-water (70:30, vol/vol) at 25°C as described previously ([22]). […]

A short description of data set [3]: Solubility in water at millimolar concentrations. The class given is physicochemical.
The subject of a further data set is Candida albicans. Put plainly: Abrogation of the antifungal effect by exogenous divalent metals. The class given is cell-based. The following applies: for fungal growth rate compared to control cells: in the presence of 100 μM Fe^2+. As to the method: as §1, with “[…],” for “susceptibility assay in the presence of 5 μM ZAC989 or ZAC307 and with increasing concentrations (0.003 to 50 μM) of ZnSO4, CuSO4, (NH4)2Fe(SO4)2,”

Where [4] appears, read: Candida albicans, SC5314, 24 h, read-out: MIC.
Setting [5] is: DMSO-water (70:30, vol/vol), CuSO4.

≈ marks a conversion by molar mass, not a printed value. Where two headings read alike, the source gives them in different places.

`O=C(O)CN(CCN(CC(=O)O)CC(=O)O)CC(=O)O` [EDTA]: the MIC in the data set with C. albicans SC5314 (setting [4]) was roughly 0.05 µg/mL (≈ 0.171 µM). In addition, in the data set with HepG2 cells, the “effect on the proliferation of HepG2 cells (in words)” value is “did not affect the proliferation of HepG2 cells” and the EC50 was greater than 29 µg/mL.

As to `c1ccc(CN(CCN(Cc2ccccn2)Cc2ccccn2)Cc2ccccn2)nc1` [TPEN, N,N,N’,N’-tetrakis(2-pyridylmethyl)-ethylenediamine], the MIC in the data set on C. albicans SC5314 (setting [4]) was roughly 0.05 µg/mL (≈ 0.118 µM).

As for `CN(C)c1cc(-n2nc(-c3ccccc3)cc2O)ncn1` [ZAC307, 2-[6-(dimethylamino)pyrimidin-4-yl]-5-phenyl-pyrazol-3-ol], the “copper binding (in words)” value in data set [1] is reported as “binds copper”. Further, the “Ca^2+ binding” value in data set [2] was “negligible”. In addition, the solubility in water result in data set [3] is reported as “poor solubility in water”. The MIC with C. albicans SC5314 (setting [4]) is 0.4 µg/mL (≈ 1.42 µM). In the data set on Candida albicans, the “effect of exogenous addition of zinc or copper on the antifungal effects” value is on record as “reversed” and the “fungal growth rate compared to control cells” value was “approximately 50%”.

For `Cc1cc(O)n(-c2cc(N3CC[C@H](Oc4cnccc4C#N)C3)ncn2)n1` [ZAC989, 3-[(3S)-1-[6-(5-hydroxy-3-methyl-pyrazol-1-yl)pyrimidin-4-yl]pyrrolidin-3-yl]oxy-pyridine-4-carbonitrile], in data set [1] (setting [5]), the “formation constant log β1 (copper)” value was 7.83, the “formation constant log β2 (copper)” value is reported as 13.37 and the “formation constant log β3 (copper)” value was found to be 20.62. Besides, the “copper binding (in words)” value in data set [1] is “chelates copper”. The “Ca^2+ binding” value in data set [2] is on record as “negligible”. Moreover, the solubility in water result in data set [3] was “poor solubility in water”. The MIC in the data set on C. albicans SC5314 (setting [4]) worked out at 0.4 µg/mL (≈ 1.1 µM). Further, the MIC with C. albicans SC5314 was 0.6 µg/mL (≈ 1.65 µM). For the same compound, in the data set with Candida albicans, the “effect of exogenous addition of zinc or copper on the antifungal effects” value was “reversed” and the “fungal growth rate compared to control cells” value is reported as “approximately 50%”. The EC50 with HepG2 cells is greater than 36 µg/mL.
